Source: patent US20210386729A1, “METHODS FOR TREATING LIVER DISORDERS USING FXR AGONISTS” (NOVARTIS AG, priority 2016, published 2021)
Converted amounts (≈) assume the structure as drawn. “Also recorded” adds a separate entry of the source. Like-named read-outs stand apart in the source and are kept apart here.

Key:
[1] = In vitro potency, human vs rat
[2] = Human efficacy dose calculation from rat efficacious exposure
Protocol: The human efficacy dose was calculated based on the efficacious exposure in the rat ANIT-induced disease model. Since the in vitro potency and protein binding between human and rat were similar, the EC80 exposure in human was assumed to be the same as that in rat (3.05 ng*h/mL).

[3] = Single oral dose plasma pharmacokinetics in healthy subjects; format: in vivo, human; conditions: for CL/F / AUC(0-inf) / AUC(0-t) / Cmax / half-life / Tmax: healthy subjects, plasma; for AUC(0-inf) / AUC(0-t) / Cmax / half-life / Tmax: human
FGF19 = conditions: healthy subjects, single and repeated dosing
[4] = Protein binding, human vs rat; format: in vitro ADME
[5] = test system: rat ANIT-induced cholestasis chronic treatment model; assay: PK/PD modeling of effective exposure in rat ANIT-induced cholestasis chronic treatment model; format: in vivo
Protocol: Male Wistar rats were treated with ANIT (0.1% ANIT in chow diet) for 2 weeks. […] The serum samples were collected on day 14 for analysis of biomarkers of hepatobiliary injury (including ALT, AST, bilirubin and bile acids). The PK samples (pre-dose, 0.5, 1, 3, 7, 10 and 24 h, n=3/dose group) were taken on day 13 (at steady-state). […] The mean biomarker data were compared to the PK data (average concentration at each dose) for the modeling. The IC80 was determined using the Inhibitory effect Imax model (effect C=0 at Imax, C=infinity at E0) built in Phoenix WinNonlin 6.3 software. […] Therefore, we chose to use a mean of the IC80 for the four biomarkers (total bilirubin, total bile acids, ALT and AST) as the IC80 for efficacy in this model. From these studies, the IC80 of LJN452 was 0.127 ng/ml and the corresponding AUC0-24 h was 3.05 ng*h/ml (Table 1), and the corresponding efficacious dose is approximately 0.01 mg/kg (based on Table 1 and Table 2).
E0, effect at zero drug concentration; Imax, maximal drug effect; IC80, drug concentration producing 80% of the maximum effect.
The PK samples (pre-dose, 0.5, 1, 3, 7, 10 and 24 h, n=3/dose group) were taken on day 13 (at steady-state). AUC0-24 h was determined using Phoenix WinNonlin 6.3 software and the average concentrations were calculated from mean of AUC0-24 h at each dose (divided the AUC0-24 h by 24 h). The individual biomarker data were compared to the PK data (average concentration at each dose) for the modeling. Since the lowest dose (0.01 mg/kg) already approached maximal efficacy, the IC80 was chosen as the measurement of the efficacious exposure (Table 1). The IC80 was determined using the Inhibitory effect Imax model (effect C=0 at Imax, C=infinity at E0) built in Phoenix WinNonlin 6.3 software.
E0: effect at zero drug concentration; Imax: maximal drug effect IC80, drug concentration producing 80% of the maximum effect.

[6] = Pharmacokinetics in the chronic 2 week rat ANIT-induced cholestasis model; format: in vivo; conditions: male, Wistar, po, day 13, serum; for AUC(0-t): read-out: AUC 0-24 hr
Protocol: Male Wistar rats were treated with ANIT (0.1% ANIT in chow diet) for 2 weeks. […] The serum samples were collected on day 14 for analysis of biomarkers of hepatobiliary injury (including ALT, AST, bilirubin and bile acids). […] The mean biomarker data were compared to the PK data (average concentration at each dose) for the modeling. The IC80 was determined using the Inhibitory effect Imax model (effect C=0 at Imax, C=infinity at E0) built in Phoenix WinNonlin 6.3 software. […] Therefore, we chose to use a mean of the IC80 for the four biomarkers (total bilirubin, total bile acids, ALT and AST) as the IC80 for efficacy in this model.
ND=not determined. Data are presented as mean (n=3/group).

[7] = 10 ug, single oral dose 10 μg, fasted, mean
[8] = 30 ug, single oral dose 30 μg, fasted, mean
[9] = 100 ug, single oral dose 100 μg, fasted, mean
[10] = 300 ug, single oral dose 300 μg, fasted, mean
[11] = 1000 ug, single oral dose 1000 μg, fasted, mean
[12] = 3000 ug, single oral dose 3000 μg, fasted, mean
[13] = effect at zero drug concentration, 2-week rat ANIT model, serum
[14] = maximal drug effect, 2-week rat ANIT model, serum

## O=C(O)c1cc(F)c2nc(N3C4CC[C@H]3CC(OCc3c(-c5ccccc5OC(F)(F)F)noc3C3CC3)C4)sc2c1 (stereo partly drawn) [Compound A]
[1]
  in vitro potency between human and rat: similar
[2]; at dose of ~6 μg
  Cmax at estimated human efficacious dose: ~0.2 ng/mL
[2]; rat value, human assumed to be the same
  EC80 exposure: 3.05 ng·h/mL
[3]; single oral dose 10 μg, fasted, mean
  CL/F: 2.98 L/h
[3]; single oral dose 30 μg, fasted, mean
  CL/F: 2.26 L/h
[3]; single oral dose 100 μg, fasted, mean
  CL/F: 3.08 L/h
[3]; single oral dose 300 μg, fasted, mean
  CL/F: 3.21 L/h
[3]; single oral dose 1000 μg, fasted, mean
  CL/F: 2.43 L/h
[3]; single oral dose 3000 μg, fasted, mean
  CL/F: 3.63 L/h
[3]; [7]
  AUC(0-inf): 3.39 ng·h/mL
  AUC(0-t): 2.79 ng·h/mL
  Cmax: 0.186 ng/mL
[3]; 10 ug, single oral dose 10 μg, fasted, mean, read-out: T1/2 (converted)
  half-life: 14.9 h
[3]; 10 ug, single oral dose 10 μg, fasted, median, read-out: Tmax
  Tmax: 4 h
[3]; [8]
  AUC(0-inf): 13.4 ng·h/mL
  AUC(0-t): 12.7 ng·h/mL
  Cmax: 0.627 ng/mL
[3]; 30 ug, single oral dose 30 μg, fasted, mean, read-out: T1/2 (converted)
  half-life: 13.7 h
[3]; 30 ug, single oral dose 30 μg, fasted, median, read-out: Tmax
  Tmax: 4 h
[3]; [9]
  AUC(0-inf): 37.9 ng·h/mL
  AUC(0-t): 34.8 ng·h/mL
  Cmax: 1.73 ng/mL
[3]; 100 ug, single oral dose 100 μg, fasted, mean, read-out: T1/2 (converted)
  half-life: 13.5 h
[3]; 100 ug, single oral dose 100 μg, fasted, median, read-out: Tmax
  Tmax: 4 h
[3]; [10]
  AUC(0-inf): 123 ng·h/mL
  AUC(0-t): 119 ng·h/mL
  Cmax: 6.41 ng/mL
[3]; 300 ug, single oral dose 300 μg, fasted, mean, read-out: T1/2 (converted)
  half-life: 15.3 h
[3]; 300 ug, single oral dose 300 μg, fasted, median, read-out: Tmax
  Tmax: 4 h
[3]; [11]
  AUC(0-inf): 482 ng·h/mL
  AUC(0-t): 416 ng·h/mL
  Cmax: 22.1 ng/mL
[3]; 1000 ug, single oral dose 1000 μg, fasted, mean, read-out: T1/2 (converted)
  half-life: 21.9 h
[3]; 1000 ug, single oral dose 1000 μg, fasted, median, read-out: Tmax
  Tmax: 4 h
[3]; [12]
  AUC(0-inf): 933 ng·h/mL
  AUC(0-t): 888 ng·h/mL
  Cmax: 54.2 ng/mL
[3]; 3000 ug, single oral dose 3000 μg, fasted, mean, read-out: T1/2 (converted)
  half-life: 16.5 h
[3]; 3000 ug, single oral dose 3000 μg, fasted, median, read-out: Tmax
  Tmax: 4 h
[3]; single oral dose, fasted, read-out: median Tmax
  Tmax: 4 h
[3]; single oral dose, range across doses, read-out: mean apparent terminal elimination half-life
  half-life: 13 to 22 h
[3]; single dose, dose range 10 μg to 3000 μg
  dose proportionality of mean Cmax and AUCinf: approximately dose proportional increase
FXR target genes; rat liver
  BSEP gene expression levels: significant, dose-dependent increases
  SHP gene expression levels: significant, dose-dependent increases
FXR target genes; rats treated two weeks, FXR target gene induction/repression in liver and ileum, day 14
  estimated effective dose (mean ED and median ED): approximately 0.01 mg/kg
FGF19
  FGF19 response to dose: Dose-dependent increases; also recorded: continues to rise with increasing Compound A doses beyond 100 μg
[4]
  protein binding between human and rat: similar
[5]; AUC0-24 h corresponding to mean IC80, rat ANIT model
  Mean (efficacious AUC0-24 h): 3.05 ng·h/mL
[5]; drug concentration producing 80% of the maximum effect, rat ANIT model, read-out: IC80, ALT
  IC80: 0.054 ng/mL (≈ 0.0895 nM)
[5]; drug concentration producing 80% of the maximum effect, rat ANIT model, read-out: IC80, AST
  IC80: 0.076 ng/mL (≈ 0.126 nM)
[5]; drug concentration producing 80% of the maximum effect, rat ANIT model, read-out: IC80, Total bile acids
  IC80: 0.155 ng/mL (≈ 0.257 nM)
[5]; drug concentration producing 80% of the maximum effect, rat ANIT model, read-out: IC80, Total bilirubin
  IC80: 0.223 ng/mL (≈ 0.369 nM)
[5]; [13]
  E0, ALT: 138.2 U/L
  E0, AST: 272.8 U/L
  E0, Total bile acids: 147.8 µmol/L
  E0, Total bilirubin: 2.3 mg/dL
[5]; [14]
  Imax, ALT: 84.2 U/L
  Imax, AST: 140.3 U/L
  Imax, Total bile acids: 125.5 µmol/L
  Imax, Total bilirubin: 2.0 mg/dL
[5]; mean of IC80 for total bilirubin, total bile acids, ALT and AST, rat ANIT model, read-out: Mean (IC80)
  IC80: 0.127 ng/mL (≈ 0.21 nM)
[5]; rat ANIT model, based on Table 1 and Table 2
  corresponding efficacious dose: approximately 0.01 mg/kg
[6]; 0.01 mg/kg
  Cmax: 0.39 ng/mL
  AUC(0-t): 3.49 ng·h/mL
[6]; 0.05 mg/kg
  Cmax: 2.28 ng/mL
[6]; 0.25 mg/kg
  Cmax: 15.6 ng/mL
  AUC(0-t): 158 ng·h/mL
[6]; 1.0 mg/kg
  Cmax: 52 ng/mL
  AUC(0-t): 582 ng·h/mL
